Consider 24 compounds from patent US20130123326A1, “ALLOSTERIC BINDING COMPOUNDS” (REGION MIDTJYLLAND, priority 2009, published 2013).

SMILES strings stand for the structures. Like-named read-outs stand apart in the source and are kept apart here.

One test deals with hSERT (Homo sapiens, UniProt P31645). As to the kind of experiment: Dissociation assay with [3H]-citalopram and hSERT membrane preparations. The settings on record: for Max. Stability (maximum stabilization factor): estimated upper plateau of sigmoidal response curve: how many folds the off-rate of bound radioligand from SERT can be attenuated, N/A = No activity. Type of test: binding. The protocol: Dulbecco's modified Eagle's medium, fetal bovine serum, trypsin, and penicillin/streptomycin were purchased from Invitrogen. Cell culture flasks were from NUNC. MicroScint-20 scintillation mixture was from Packard. [^3H]-Citalopram (85 Ci/mmol) was a gift from H. Lundbeck A/S (Valby, Denmark). Fugene-6 transfection reagent was from Roche Molecular Biochemicals. All chemicals are commercially available. Stock solutions of the allosteric ligands were prepared as 100 mM in EtOH.
Sequence of hSERT (P31645 whole entry): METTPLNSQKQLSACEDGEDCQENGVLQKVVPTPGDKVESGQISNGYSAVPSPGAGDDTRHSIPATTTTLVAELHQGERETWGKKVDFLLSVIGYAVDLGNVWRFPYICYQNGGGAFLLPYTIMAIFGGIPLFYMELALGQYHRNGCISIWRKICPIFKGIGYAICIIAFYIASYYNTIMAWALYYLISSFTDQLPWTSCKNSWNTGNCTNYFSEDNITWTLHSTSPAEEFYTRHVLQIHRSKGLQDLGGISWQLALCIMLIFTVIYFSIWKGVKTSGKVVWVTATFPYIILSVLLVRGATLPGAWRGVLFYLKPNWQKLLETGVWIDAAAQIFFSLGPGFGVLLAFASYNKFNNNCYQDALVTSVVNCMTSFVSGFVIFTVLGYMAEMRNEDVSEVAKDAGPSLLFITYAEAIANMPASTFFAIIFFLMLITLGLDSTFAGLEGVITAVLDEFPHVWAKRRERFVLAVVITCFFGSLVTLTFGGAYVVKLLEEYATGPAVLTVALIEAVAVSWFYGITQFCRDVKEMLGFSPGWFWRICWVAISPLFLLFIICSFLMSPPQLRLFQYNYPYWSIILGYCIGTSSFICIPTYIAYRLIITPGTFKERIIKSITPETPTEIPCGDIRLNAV
The pcDNA3 plasmid vector containing the hSERT gene was used for transfection.
17.5 μl Fugene-6 (Roche Molecular Biochemicals) were mixed with 280 μl Dulbecco's modified Eagle's medium, and incubated at room temperature for 5 minutes. 10 μg of hSERT plasmid were added and the mixture was further incubated at least 15 minutes. […] The cells were plated at 35% confluency in a 150 mm dish, and grown at 37° C. for 64 h. Prior to harvesting the dish was rinsed in PBS. Cells were harvested with a cell scraper in buffer 1 (50 mM Tris-base, 150 mM NaCl, 20 mM EDTA, pH 7.4). After centrifugation (3000 g at 4° C. for 10 mins), cells were suspended and homogenized with an IKA Ultra-Turrax from Rose Scientific Ltd (Edmonton, Alberta, Canada) for 20 s in buffer 1. Membranes were pelleted by ultracentrifugation (12 000 g at 4° C. for 15 min) and homogenization was repeated in buffer 1. Finally, after ultracentrifugation (12000 g, 4° C., 15 min) membranes were resuspended in 1 ml buffer 3 (50 mM Tris-base, 120 mM NaCl, 5 mM KCl, pH 7.4) and stored at −80° C.
Dissociation Assay with [^3H]-Citalopram and Membrane Preparations.
SERT-[^3H]-citalopram complex was formed by incubating hSERT membrane preparation and radioligand in buffer 3 during a 60 min incubation at 4° C. Radioligand was present at a concentration 10 times the Kd value. The time kinetic of dissociation was followed by adding 10 μL complex solution to 250 μL buffer 3 in 96-well plates and incubating subsequently for increasing time intervals at RT. Reactions were terminated by filtration through GF/C glass-fibre filters (Unifilter, Perkin Elmer Life Sciences), preincubated with 40 μl 0.5% polyethyleneimine, using a Pachard Bell cell harvester, and subsequently washed three times with water. Filters were soaked in 40 μl Microscint 20 scintillation liquid (Pachard Bell). Bound radioactivity was determined by direct counting of plates using a Packard Bell microplate scintillation counter. Dissociation curves were obtained by plotting residual binding vs. time of dissociation.
The concentrations of allosteric compound in the dissociation buffer range from 400-0.2 μM.
The relative off-rate is expressed as the off-rate of the radioligand at a given concentration of allosteric compound, normalized to the off-rate of radioligand in the absence of allosteric compound.
The maximum stabilization factor is defined as the estimated upper plateau of the sigmoidal response curve, and describes how many folds the off-rate of bound radioligand from SERT can be attenuated in the presence of increasing concentrations of allosteric compound in the dissociation buffer.

The next test relates to Balb/cJ male mice. The test is described as follows: Forced swim test (FST). Type of test: in vivo. The settings on record: intraperitoneally 30 min prior to FST, seven minutes scoring period. How it is done: FIGS. 5A and 5B. Effect of allosteric compound in the mouse forced swim test (FST). Drugs were dissolved in 10% β-2-hydroxy-cyclodextrine. Male BalB/c were injected intraperitoneally with 500 μl SSRI alone or in combination with allosteric compound 30 min prior to FST (n=8). Vehicle treated animals each received 500 μl 10% 13-2-hydroxy-cyclodextrine. […] FIG. 5B depicts the effect of 5 mg/(kg bodyweight) of escitalopram alone and in combination with 15 mg/(kg bodyweight) of the allosteric compound of Example 1 (denoted ALN10 in figure). […]
FST is a behavioral model widely used to assess antidepressant-like activity in mice Porsholt et al, 1978). […] The total duration of immobility within a seven minute test period, is the main parameter measured. […]
Male BalB/c were injected intraperitoneally with 500 μl SSRI alone or in combination with allosteric compound 30 min prior to the swimming session (n=6). […] Swim sessions were videofilmed and analyzed by a blind scorer using stop watch, or by analyzing software (Ethovision, Noldus). The parameter measured was amount of time spent in a state of immobility, including small movements to keep balance and head over water. […]
FIGS. 5A and 5B gives the results from the forced swim test for the compound of Example 1. […] The dose of SSRI was chosen to be the highest sub-active concentration determined. […]

Where [1] appears, read: concentration of allosteric compound inducing 50% attenuation of the off-rate of the radioligand from SERT, 10 μM fluoxetine in dissociation buffer, read-out: EC50.

Turning to `CCOC(=O)n1cc(C)c2ccccc21` [Example 35, 3-Methyl-Indole-1-Carboxylic Acid Ethyl Ester], the EC50 on hSERT (setting [1]) was 5 µM. For the same compound, the “Max. Stability (maximum stabilization factor)” value (from here on “Max. Stability”) at hSERT is on record as 6.
The corresponding values for `CCOC(=O)n1ccc2ccccc21` [Example 24, Indole-1-Carboxylic Acid Ethyl Ester] are 1.3 µM and 9.
The corresponding values for `O=C(OC1CCCC1)c1cccc2ccccc12` [Example 32, 1-Naphthoic Acid Cyclopentyl Ester] are 9.6 µM and 10.
Turning to `CCCCSc1cccc2ccccc12` [Example 14, 1-Butyl-Sulfanyl-1-Naphthalene], the EC50 on hSERT (setting [1]) came to 12 µM. The “Max. Stability” value on hSERT is 3.6.
The like results for `CCOC(=O)n1ccc2ccc(Cl)cc21` [Example 28, 6-Chloro-Indole-1-Carboxylic Acid Ethyl Ester] were, in that order, 31 µM and 8.8.
As to `C=CCOC(=O)c1cccc2ccccc12` [Example 8, 1-Naphthoic Acid 2-Propenyl Ester], at hSERT (setting [1]), the EC50 turned out to be 16 µM. Moreover, the “Max. Stability” value at hSERT was 11.
The corresponding values for `CCSc1cccc2ccccc12` [Example 13, Ethyl-[1]Naphthyl Sulphide] are 9.4 µM and 8.3.
Consider `CC(C)OC(=O)c1cccc2ccccc12` [Example 4, 1-Naphthoic Acid Isopropyl Ester], for which, at hSERT (setting [1]), the EC50 stood at 9.8 µM. Further, the “Max. Stability” value on hSERT was 16.
For `CCOC(=O)c1cccc2ccccc12` [Example 1, 1-Naphthoic Acid Ethyl Ester], at hSERT (setting [1]), the EC50 came to 3.3 µM. In addition, on hSERT, the “Max. Stability” value was 9.1. Moreover, in the test on Balb/cJ male mice (15 mg/kg allosteric compound + 5 mg/kg (subactive) escitalopram), the “immobility time in FST, combination with escitalopram” value is reported as “significantly reduced immobility time”. Besides, the “immobility time in FST, combination with fluoxetine” value in the test with Balb/cJ male mice (15 mg/kg allosteric compound + 5 mg/kg (subactive) fluoxetine) is reported as “significantly reduced immobility time”.
Consider `CCCOc1cccc2ccccc12` [Example 21, 1-Propoxy-Naphthalene], for which the concentration for a half-maximal effect (EC50) at hSERT (setting [1]) is 46 µM. In addition, the “Max. Stability” value on hSERT is recorded as 3.9.
The like results for `COC(=O)c1cccc2ccccc12` [Example 2, 1-Naphthoic Acid Methyl Ester] were, in that order, 29 µM and 7.4.
`CCCOC(=O)c1cccc2ccccc12` [Example 3, 1-Naphthoic Acid Propyl Ester]: the EC50 on hSERT (setting [1]) is 2.1 µM. In addition, the “Max. Stability” value on hSERT is reported as 17.
The corresponding values for `OCCSc1cccc2ccccc12` [Example 15, 2-Hydroxyethyl-1-Naphthyl Sulphide] are 4.6 µM and 10.2.
The corresponding values for `C#CCOC(=O)c1cccc2ccccc12` [Example 9, 1-Naphthoic Acid 2-Propynyl Ester] are 15 µM and 13.
For the compound `CCNC(=O)c1cccc2ccccc12` [Example 10, 1-Naphthoic Acid Ethylamide], the EC50 on hSERT (setting [1]) is 74 µM. Besides, the “Max. Stability” value on hSERT was 1.8.
The corresponding values for `CSc1cccc2ccccc12` [Example 12, Methyl-[1]Naphthyl Sulphide] are 17 µM and 10.
Regarding `CCCSc1cccc2ccccc12` [Example 11, 1-Propyl-Sulfanyl-1-Naphthalene], the EC50 on hSERT (setting [1]) was determined as 4.7 µM. For the same compound, the “Max. Stability” value at hSERT is given as 6.4.
For the compound `C#CCSc1cccc2ccccc12` [Example 16, 3-Ethynyl-Sulfanyl-1-Naphthalene], the EC50 at hSERT (setting [1]) was determined as 1.2 µM. Further, at hSERT, the “Max. Stability” value is listed as 10.3.
For `CCOC(=O)n1nnc2ccccc21` [Example 29, Benzotriazole-1-Carboxylic Acid Ethyl Ester], the concentration giving a half-maximal response (EC50) at hSERT (setting [1]) stood at 61 µM. Besides, at hSERT, the “Max. Stability” value is given as 5.4.
The corresponding values for `O=C(OCCO)c1cccc2ccccc12` [Example 6, 1-Naphthoic Acid 2-Hydroxyethyl Ester] are 14.5 µM and 20.
Turning to `Sc1cccc2ccccc12` [reference compound], the concentration for a half-maximal effect (EC50) at hSERT (setting [1]) was more than 1000 µM.
With `CCOS(=O)(=O)c1cccc2ccccc12` [reference compound], on hSERT, the half-maximal effective concentration (EC50) came to 120 µM and the “Max. Stability” value is given as 3.1.
`C=CCSc1cccc2ccccc12` [Example 17]: the EC50 on hSERT (setting [1]) was determined as 3.2 µM. In addition, on hSERT, the “Max. Stability” value is on record as 6.3.
For `CCOC(=O)n1ccc2ccc(C)cc21` [Example 27, 6-Methyl-Indole-1-Carboxylic Acid Ethyl Ester], at hSERT (setting [1]), the concentration giving a half-maximal response (EC50) worked out at 34 µM. Also, the “Max. Stability” value at hSERT is recorded as 15.
